What was measured:
Format in all cases: in vivo, human
[1] = test system: C. difficile infection (CDI); experiment: CDI trial: number of unformed stools during the treatment period; details: during the treatment period; ANOVA model with treatment and center as main effects; Rifaximin N = 117, Vancomycin N = 115
Excerpt: FIG. 18 sets for the average number of unformed stools per day of the study.

[2] = test system: C. difficile infection (CDI); experiment: CDI trial: recurrence of CDI, recurrence rate per person-year
Excerpt: Recurrence was defined to be a diarrhea and a positive C. diff stool toxin assay that occurred after initial clinical success.

[3] = test system: C. difficile infection (CDI); experiment: CDI trial: efficacy adjusting for concomitant medication usage
Excerpt: Table 48 sets forth the efficacy adjusting for concomitant medication usage.

[4] = test system: C. difficile infection (CDI); experiment: CDI trial: enteric symptoms at TOC; details: Rifaximin N = 108, Vancomycin N = 111
Excerpt: Table 41 sets forth a summary of the enteric symptoms at TOC.

[5] = test system: C. difficile infection (CDI); experiment: CDI trial: subgroup analysis of diarrhea at TOC; details: at TOC
Excerpt: Tables 42 and 43 set forth a subgroup analysis of diarrhea at TOC.

[6] = test system: C. difficile infection (CDI); experiment: CDI trial: continuing illnesses; details: Rifaximin N = 117, Vancomycin N = 115
[7] = test system: C. difficile infection (CDI); experiment: CDI trial: global cure of diarrhea; details: Rifaximin N = 117, Vancomycin N = 115
Excerpt: Subjects having a global cure of diarrhea are set for the in Table 45. Global cure of diarrhea was defined as subjects who were cured of diarrhea at TOC without recurrence at follow up.

[8] = test system: C. difficile infection (CDI); experiment: CDI trial rifaximin 400 mg TID vs vancomycin 125 mg QID: clinical success at Test of Cure; details: at TOC (Day 14+/−1)
Description: Criteria for entry into the trial were: • Age>=18 years old; • Had acute diarrhea at screening defined as >=3 unformed stools in the last 24 hours and at least one sign of enteric infection (fever, nausea, lose of appetite, vomiting, severe abdominal pain/discomfort); and • a positive C. diff stool toxin assay
The primary efficacy endpoint of the study was defined as the proportion of subjects achieving clinical success. Specifically, clinical success was defined as the absence of severe abdominal pain at Test of Cure (TOC), absence of fever (<38° C.) at TOC, and <3 unformed stools for two consecutive days at TOC.
The non-inferiority margin for the primary endpoint was defined as lower bound of 95% CI of delta above −15%.
Clinical success was defined as the: Absence of severe abdominal pain at TOC, absence of fever (<38° C.) at TOC, and <3 unformed stools for two consecutive days at TOC. Test of cure defined as Day 14+/−1 day.

[9] = after initial clinical success, Rifaximin N = 67, Vancomycin N = 73
[10] = all subjects, Rifaximin N = 117, Vancomycin N = 115
[11] = Rifaximin N = 109, Vancomycin N = 112
[12] = Rifaximin N = 117, Vancomycin N = 115
[13] = subgroup Age <65, Rifaximin N = 69, Vancomycin N = 62
[14] = subgroup Age >=65, Rifaximin N = 39, Vancomycin N = 49
[15] = subgroup Female, Rifaximin N = 68, Vancomycin N = 64
[16] = subgroup Male, Rifaximin N = 40, Vancomycin N = 47
[17] = cured of diarrhea at TOC without recurrence at follow up

CN[C@H](CC(C)C)C(=O)N[C@H]1C(=O)N[C@@H](CC(N)=O)C(=O)N[C@H]2C(=O)N[C@H]3C(=O)N[C@H](C(=O)N[C@H](C(=O)O)c4cc(O)cc(O)c4-c4cc3ccc4O)[C@H](O)c3ccc(c(Cl)c3)Oc3cc2cc(c3O[C@@H]2O[C@H](CO)[C@@H](O)[C@H](O)[C@H]2O[C@H]2C[C@](C)(N)[C@H](O)[C@H](C)O2)Oc2ccc(cc2Cl)[C@H]1O [Vancomycin, vancomycin]
Adjusted mean number of unformed stools-ANOVA [1]: 1.90
No Recurrence of CDI, number of subjects [2, 9]: 63
No Recurrence of CDI, percent of subjects [2, 9]: (86%)
Recurrence of CDI, number of subjects [2, 9]: 10
Recurrence of CDI, percent of subjects [2, 9]: (14%)
Recurrence: No, number of subjects [2, 10]: 105
Recurrence: No, percent of subjects [2, 10]: (93%)
Recurrence: Yes, number of subjects [2, 10]: 10
Recurrence: Yes, percent of subjects [2, 10]: (7%)
Diarrhea: No, number of subjects [3, 11]: 82
Diarrhea: No, percent of subjects [3, 11]: (73%)
Diarrhea: Yes, number of subjects [3, 11]: 30
Diarrhea: Yes, percent of subjects [3, 11]: (27%)
Clinical Success: No, number of subjects [3, 12]: 46
Clinical Success: No, percent of subjects [3, 12]: (40%)
Clinical Success: Yes, number of subjects [3, 12]: 69
Clinical Success: Yes, percent of subjects [3, 12]: (60%)
Diarrhea: No, number of subjects [4]: 90
Diarrhea: No, percent of subjects [4]: (81%)
Diarrhea: Yes, number of subjects [4]: 21
Diarrhea: Yes, percent of subjects [4]: (19%)
Fever: No, number of subjects [4]: 109
Fever: No, percent of subjects [4]: (98%)
Fever: Yes, number of subjects [4]: 2
Fever: Yes, percent of subjects [4]: (2%)
Severe Abdominal Pain/Discomfort: No, number of subjects [4]: 95
Severe Abdominal Pain/Discomfort: No, percent of subjects [4]: (86%)
Severe Abdominal Pain/Discomfort: Yes, number of subjects [4]: 16
Severe Abdominal Pain/Discomfort: Yes, percent of subjects [4]: (14%)
Diarrhea, number of subjects [5, 13]: 12
Diarrhea, percent of subjects [5, 13]: (19%)
No Diarrhea, number of subjects [5, 13]: 50
No Diarrhea, percent of subjects [5, 13]: (81%)
Diarrhea, number of subjects [5, 14]: 9
Diarrhea, percent of subjects [5, 14]: (18%)
No Diarrhea, number of subjects [5, 14]: 40
No Diarrhea, percent of subjects [5, 14]: (82%)
Diarrhea, number of subjects [5, 15]: 11
Diarrhea, percent of subjects [5, 15]: (17%)
No Diarrhea, number of subjects [5, 15]: 53
No Diarrhea, percent of subjects [5, 15]: (83%)
Diarrhea, number of subjects [5, 16]: 10
Diarrhea, percent of subjects [5, 16]: (21%)
No Diarrhea, number of subjects [5, 16]: 37
No Diarrhea, percent of subjects [5, 16]: (79%)
Continuing Illness: No, number of subjects [6]: 99
Continuing Illness: No, percent of subjects [6]: (86%)
Continuing Illness: Yes, number of subjects [6]: 16
Continuing Illness: Yes, percent of subjects [6]: (14%)
Global Cure of Diarrhea: No, number of subjects [7]: 30
Global Cure of Diarrhea: No, percent of subjects [7]: (26%)
Global Cure of Diarrhea: Yes, number of subjects [7, 17]: 85
Global Cure of Diarrhea: Yes, percent of subjects [7, 17]: (74%)
Clinical Success: Yes, number of subjects ([8]; Rifaximin 400 mg TID N = 117, Vancomycin 125 mg QID N = 115): 73
Clinical Success: No, number of subjects [8, 12]: 42
Clinical Success: No, percent of subjects [8, 12]: (37%)
Clinical Success: Yes, percent of subjects [8, 12]: (64%)
